Consider five molecules from US11478440B2, “Combination of Elafibranor or derivatives thereof with an anti-NASH, anti-fibrotic or anti-cholestatic agent” (GENFIT, priority 2017, dated 2022).

One assay has as its system TGFβ1-induced hHSC. As to the kind of experiment: α-SMA ELISA in TGFβ1-induced human primary hepatic stellate cells. In kind it is cell-based. The method, then:
The human primary hepatic stellate cells (hHSC) (Innoprot) were cultured in STeCM medium (ScienCell cat #5301) that was supplemented with 2% fetal bovine serum (FBS, ScienCell cat #0010), 1% penicillin/streptomycin (ScienCell cat #0503) and stellate cell growth supplement (SteCGS; ScienCell cat #5352). Cell culture flasks were coated with Poly-L Lysine (Sigma cat #P4707) for a better adherence.
For these experiments, a checkerboard matrix was generated. ELA and component (ii) stocks were serially diluted in DMSO in 5-points series in a row (ELA) and a 11-points series in a column (component (ii)) of a 96-well plate. Subsequently, the 5×11 combination matrix was generated by 1:1 mixing of all single agent concentrations. The test concentrations for each compound were chosen based on the respective IC50 of each compound as single agent obtained by measuring α-SMA content in the HSC model stimulated with TGF-β1.
The human primary hepatic stellate cells (hHSC) (Innoprot) were cultured under standard conditions, as described above. The cells were subsequently plated at a density of 2×10^4 cells/well into 96-well plates for the measure of α-SMA by ELISA. The next day, cell-culture medium was removed, and cells were washed with PBS (Invitrogen cat #14190). hHSC were deprived for 24 hours in serum-free and SteCGS-free medium. For the treatments with ELA, component (ii) and the respective ELA/component (ii) combinations, the serum-deprived hHSC were preincubated for 1 hour with the compounds followed by addition of the profibrogenic stimuli TGF-β1 (PeproTech cat #100-21, 1 ng/mL) in serum-free and SteCGS-free medium for an additional 48 hour period.
The level of α-SMA was measured using a Sandwich ELISA. Briefly, the wells of an ELISA plate were first coated with the capture antibody (mouse monoclonal anti-ACTA2, Abnova) at 4° C. overnight. After 3 washes in PBS+0.2% Tween 20, a blocking solution consisting of PBS+0.2% BSA was added for one hour followed by another washing cycle. The cell lysates were transferred into the wells for binding to the capture antibody for a period of 2 h at room temperature. After the washing procedure, the detection antibody (biotinylated mouse monoclonal anti-ACTA2, Abnova) was added for 2 hours at room temperature followed by 3 washes. For the detection, an HRP-conjugated Streptavidin (R&D Systems cat #DY998) was first applied for 30 min at room temperature. After washing, the HRP substrate TMB (BD, #555214) was added and incubated for 7 min at room temperature in the dark. Upon oxidation, TMB forms a water-soluble blue reaction product that becomes yellow with addition of sulfuric acid (solution stop), enabling accurate measurement of the intensity at 450 nm using a spectrophotometer. The developed color is directly proportional to the amount of α-SMA present in the lysate.
The human primary hepatic stellate cells (hHSC) (Innoprot) were cultured in STeCM medium (ScienCell cat #5301) that was supplemented with 2% fetal bovine serum (FBS, ScienCell cat #0010), 1% penicillin/streptomycin (ScienCell cat #0503) and stellate cell growth supplement (SteCGS; ScienCell cat #5352). Cell-culture flasks were coated with Poly-L Lysine (Sigma cat #P4707) for a better adherence.
For these experiments, a checkerboard matrix was generated. CVC and Elafibranor stocks were serially diluted in DMSO in a 5-points series in a row (Elafibranor) and a 6-points series in a column (Cenicriviroc) of a 96-well plate. Subsequently, the […] combination matrix was generated by 1:1 mixing of all single agent concentrations. The test concentrations for each compound were chosen based on the respective IC50 of each compound as single agent obtained by measuring α-SMA content in the HSC model stimulated with TGF-β1.
The human primary hepatic stellate cells (hHSC) (Innoprot) were cultured under standard conditions, as described above. […]

Assay [1] deals with mice with NASH (CDFF-fed mice). The assay is described as follows: Mouse fibrosing-NASH model (CDFF diet, 8 weeks). In kind it is in vivo, C57Bl/6J mice. The method, then: The preventive effects of the combinations of elafibranor with selonsertib, GKT-831 or GS-0976 were assessed in mice fed a choline-deficient, […] diet (CDAA) supplemented with 2% cholesterol, 30% milk fat diet and high fructose corn syrup 55 (55% fructose/45% glucose for a final concentration of 42 g/L) in drinking water (Mells et al J Nutr Biochem 2015) (CDFF diet). 5-6 weeks old male C57Bl/6J mice were fed a control (CSAA) diet (n=4), CDFF (n=12), or CDFF supplemented with elafibranor (1 or 3 mg/kg/day), selonsertib (30 mg/kg/day), GKT-831 ([…]) alone or in combination (n=8 per group) for 8 weeks.
The body weight, the food and water intake were monitored twice per week. On the last day of treatment, plasma samples were obtained from retro-orbital blood sampling and mice were sacrificed after a 6 h-fasting period. The liver was rapidly excised for biochemical and histological analyses. All animal procedures were performed according to standard protocols and in accordance with the standard recommendations for the proper care and use of laboratory animals.
The liver slices were fixed in a formalin 4% solution. Then, the liver pieces were washed 30 minutes in PBS, and dehydrated in ethanol solutions (successive baths at 70, 80, 95 and 100% ethanol). The liver pieces were incubated in three different baths of Xylene (Honeywell cat #534056), followed by two baths in liquid paraffin (59° C.). Liver pieces were then put into racks that were gently filled with HISTOWAX to completely cover the tissue.
Liver sections were deparaffinized, rehydrated and incubated for 3 minutes in Mayer's Hematoxylin (Microm, cat #F/C0303). Then, the liver sections were rinsed in water and incubated 1 minute in a Eosin Y 0.5% alcoholic (VWR, cat #1.02439.0500) and Erythrosin 0.5% solution (VWR, cat #1.15936.0010), and rinsed in with ethanol. Sections were then incubated for 2 minutes in Safranin, and were eventually dehydrated and mounted using the CV Mount medium (Leica, cat #046430011).
(§1) Liver sections were deparaffinized, rehydrated and incubated for 15 minutes in a solution of Fast Green FCF 0.1% (Sigma-Aldrich, cat #F7258) before rinsing in a bath of 0.5% acetic acid (Panreac, cat #131008.1611). Then, the liver sections were rinsed in water and incubated 30 minutes in a solution of 0.1% sirius red (Direct Red 80, Fluka cat #43665) in saturated aqueous picric acid (Sigma-Aldrich cat #P6744). Sections were then dehydrated, and mounted using the CV Mount medium (Leica, cat #14046430011).
(§2) A technician blinded to the source of each liver specimen performed histological examinations. Virtual slides were generated using the Pannoramic 250 scanner from 3D Histech. For each animal, a score summarizing the main histological lesions of NASH was attributed according to the NASH Clinical Research Network (Kleiner 2005, Brunt 1999). Briefly, steatosis, lobular inflammation and hepatocyte ballooning were scored. The NAFLD Activity Score (NAS) was established for each individual as the unweighted sum of the steatosis (0-3), lobular inflammation (0-3) and the ballooning (0-2) injury grading.
(§3) Using Quant Center software (3D Histech, including Pattern Quant and Histo Quant modules), collagen-stained areas were quantified. Briefly, Pattern Quant was used to detect the tissue and measure its surface. Then, Histo Quant was used to detect the stained collagen content and measure its surface, based on a color threshold method. The fibrosis area was then expressed as the percentage of the collagen surface to the whole tissue per animal.
The hepatic collagen content was determined using the appropriate QuickZyme kit (Total collagen assay, cat #QZB-totcol2). The assay is based on the detection of hydroxyproline, which is a non-proteinogenic amino acid mainly found in the triple helix of collagen. […]

The subject of assay [2] is fibrosing NASH-model of rats fed a CDAA+1% cholesterol diet. As to the kind of experiment: Chronic CDAA+1% cholesterol rat model: hepatic collagen content (hydroxyproline). In kind it is in vivo, Wistar rats. As to conditions: GFT505 3 mg/kg/d, OCA 10 mg/kg/d, alone or combined; 12 weeks in diet. The method, then: (§4) The preventive effects of Elafibranor alone, OCA alone and the combination of both were assessed in a fibrosing NASH-model of rats fed a CDAA+1% cholesterol diet. 150-175 g male Wistar rats were fed a control (CSAA) diet, CDAA+1% cholesterol diet, or CDAA+1% cholesterol diet supplemented with Elafibranor 1, 3 and 10 mg/kg/day, OCA 10 and 30 mg/kg/day or combined drugs (Elafibranor 1, 3 and 10 mg/kg/day combined to OCA 10 mg/kg/day) for 12 weeks.
(§5) The body weight and the food intake were monitored twice per week. On the last day of treatment, rats were sacrificed after a 6 h fasting period. The liver was rapidly excised for biochemical and histological studies.
The hepatic collagen content was determined using the appropriate QuickZyme kit (Total collagen assay, cat #QZB-totcol2). The assay is based on the detection of hydroxyproline, which is a non-proteinogenic amino acid mainly found in the triple helix of collagen. Thus, hydroxyproline in tissue hydrolysates can be used as a direct measure of the amount of collagen present in the tissue (without discrimination between procollagen, mature collagen and collagen degradation products).
Complete hydrolysis of tissue samples in 6M HCl at 95° C. is required before dosing the hydroxyproline. The assay results in the generation of a chromogen with a maximum absorbance at 570 nm. Results are expressed as mg of collagen/g of liver.

The test system is the same in assay [3]. The assay is described as follows: Chronic CDAA+1% cholesterol rat model: liver histology (picrosirius fibrosis surface, NASH lesions). As to conditions: GFT505 3 mg/kg/d, OCA 10 mg/kg/d, alone or combined; 12 weeks in diet. It is filed as in vivo, Wistar rats. The method, then: as §4, §5
The liver slices were first fixed for 12 hours in formalin 4% solution. Then, the liver pieces were washed 30 minutes in PBS, and dehydrated in ethanol solutions (successive baths at 70, 80, 95 and 100% ethanol). The liver pieces were incubated in three different baths of Xylene (Sigma-Aldrich cat #534056), followed by two baths in liquid paraffin (56° C.). Liver pieces were then put into racks that were gently filled with HISTOWAX to completely cover the tissue.
The paraffin blocks containing the tissue pieces were removed from the racks and stored at room temperature. The liver blocks were cut into 3 μm slices.
Liver sections were deparaffinized, rehydrated and incubated for 3 minutes in Mayer's Hematoxylin (Microm, cat #F/C0303). Then, the liver sections were rinsed in water and incubated 1 minute in Eosin G (VWR, cat #1.09844.1000). Sections were rinsed in water then dehydrated, and mounted using the CV Mount medium (Leica, cat #14046430011).
as §1
as §2, with “hepatocytes” for “hepatocyte”, “(NAS score)” for “(NAS)”
as §3

Assay [4] has the same test system. The assay is described as follows: Chronic CDAA+1% cholesterol rat model: hepatic gene expression (qPCR). It is filed as in vivo, Wistar rats. To be noted: liver; GFT505 3 mg/kg/d, OCA 10 mg/kg/d, alone or combined; 12 weeks. As to the method: as §4, §5
Total RNA was isolated from rat livers using RNeasy Mini Kit (Qiagen) following manufacturer's instructions. Total RNA were reverse transcribed into cDNA using M-MLV RT (Moloney Murine Leukemia Virus Reverse Transcriptase) (Invitrogen cat #28025) in 1×RT buffer (Invitrogen), 0.5 mM DTT (Invitrogen), 0.18 mM dNTPs (Promega), 200 ng pdN6 (Amersham) and 30 U of RNase inhibitor (Promega).
Quantitative PCR was then carried out using the CFX96 TOUCH Real-Time PCR Detection System (Biorad). Briefly, the PCR reactions were performed in 96-WP format in 25 μl of total volume containing 1 μL of reverse transcription reaction, 0.5 μL of reverse and forward primers (10 pmol each), and 12.5 μl of 2×iQ SYBR Green Supermix (BioRad), using the following primer sequences:
Expression levels were normalized using the expression of RPLP0 gene as a housekeeping gene of reference in samples. For each gene, the standard curves were drawn by selecting the best points (at least three points) in order to have PCR reaction efficiency close to 100% and a correlation coefficient close to 1. Expression levels were determined using the standard curve equation for both the housekeeping gene and the target gene (taking into account the specific PCR efficiency of each target gene).
On the technique in general: Quantitative PCR measures a nucleic acid by following its amplification.

Turning to `CCCCOCCOc1ccc(-c2ccc3c(c2)/C=C(/C(=O)Nc2ccc([S@@+]([O-])Cc4cncn4CCC)cc2)CCCN3CC(C)C)cc1` [CVC, Cenicriviroc, reference compound], the “antifibrotic activity (α-SMA), single agent” value with TGFβ1-induced hHSC (5 μM of CVC alone) is reported as “does not show any antifibrotic activity”; with TGFβ1-induced hHSC (TGFβ1-activated hHSC, dose range), “did not show a significant effect at all doses”.
Take `CN(C)c1cccc(-c2c3c(=O)n(-c4ccccc4Cl)[nH]c3cc(=O)n2C)c1` [GKT-831, 2-(2-chlorophenyl)-4-[3-(dimethylamino)phenyl]-5-methyl-1H-pyrazolo[4,3-c]pyridine-3,6(2H,5H)-dione, reference compound]: the “effect on NASH and fibrosis” value in assay [1] (GKT-831 60 mg/kg/day alone) is on record as “no beneficial effect”.
As for `COc1ccccc1[C@H](Cn1c(=O)n(C(C)(C)C(=O)O)c(=O)c2c(C)c(-c3ncco3)sc21)OC1CCOCC1` [GS-0976, reference compound], the “effect on liver fat and body weight” value in assay [1] (GS-0976 30 mg/kg/day alone) is listed as “mild beneficial effect”.
For `CC[C@H]1[C@@H](O)[C@@H]2[C@H](CC[C@]3(C)[C@@H]([C@H](C)CCC(=O)O)CC[C@@H]23)[C@@]2(C)CC[C@@H](O)C[C@@H]12` [OCA, obeticholic acid, reference compound], the “Hepatic collagen content, percentage over the untreated CDAA + 1% cholesterol rats” value in assay [2] is given as 67% ± 23%. In addition, in assay [3], the “Fibrosis surface, percentage over the untreated CDAA + 1% cholesterol rats” value was 74% ± 45%. In assay [4], the “CCR5 mRNA level (marker of inflammation), percentage over the untreated CDAA + 1% cholesterol rats” value is 81% ± 28%; the “TGFβ1 mRNA level, percentage over the untreated CDAA + 1% cholesterol rats” value is on record as 110% ± 23%; the “TIMP1 mRNA level, percentage over the untreated CDAA + 1% cholesterol rats” value is 110% ± 43%; the “αSMA mRNA level, percentage over the untreated CDAA + 1% cholesterol rats” value was 109% ± 68%.
For `Cc1cc(F)c(C(=O)Nc2cccc(-c3nncn3C(C)C)n2)cc1-n1cnc(C2CC2)c1` [Selonsertib, reference compound], the “hepatic fibrosis (histology, hepatic collagen content, PIIINP and TIMP-1)” value in assay [1] (elafibranor 3 mg/kg/day, selonsertib 30 mg/kg/day, alone or combined) is “improved hepatic fibrosis in this model, albeit to a minor extent than elafibranor”.
